These are literature values, as cited in PMC3711574 (Biochemistry, 2012).

This data set deals with BHRF-1. The conditions noted are these: ref [67].

As to MRPEIWIAQELRRIGDEFNAYYARRV [Bim], the “Binding to BHRF-1” value was “binds”.
